The IC50 is the midpoint of a concentration-inhibition curve.

*1 amine or outer side, *2 acyl side, *3 side chain or, on linkers, in order; H or OH if unused. Where a SMILES comes first, the peptide text is derived from it. Bridges are numbered along the chain shown (N, C = ends). [ ]: non-standard residue; d: D form. The star is where a group is joined. ξ: configuration not given here. Phe(3-CF3) = N[C@@H](Cc1cccc(C(F)(F)F)c1)C(=O)O; Ala(morpholin-4-yl) = N[C@@H](CN1CCOCC1)C(=O)O; Phe(4-COOH) = N[C@@H](Cc1ccc(C(=O)O)cc1)C(=O)O; Bip = N[C@@H](Cc1ccc(-c2ccccc2)cc1)C(=O)O; NH(CH2)14COOH = O=C(O)CCCCCCCCCCCCCCN*; Phe(3-Me) = Cc1cccc(C[C@H](N)C(=O)O)c1; γGlu = O=C(O)[C@H](CCC(=O)[*:2])N[*:1]; NH(CH2)12COOH = O=C(O)CCCCCCCCCCCCN*; Val(3-OH) = CC(C)(O)[C@H](N)C(=O)O; aIle = CC[C@@H](C)[C@H](N)C(=O)O; 4Pal = N[C@@H](Cc1ccncc1)C(=O)O; X1 = O=C(CN1CCN([*:1])CC1)[*:2]; Cha = N[C@@H](CC1CCCCC1)C(=O)O; Cit = NC(=O)NCCC[C@H](N)C(=O)O; Ile(3ξ) = CCC(C)[C@H](N)C(=O)O; Thr(3ξ) = CC(O)[C@H](N)C(=O)O; 12Ado = NCCCCCCCCCCCC(=O)O; dDab = NCC[C@@H](N)C(=O)O; hSer = N[C@@H](CCO)C(=O)O; Carboxymethyl = O=C(O)C*; NMeA = CN[C@@H](C)C(=O)O; Orn = NCCC[C@H](N)C(=O)O; Aun = NCCCCCCCCCCC(=O)O; Dab = NCC[C@H](N)C(=O)O; AEEA = NCCOCCOCC(=O)O

Our source for the IC50 values is patent US20260070945A1, “MACROCYCLIC IMMUNOMODULATORS” (Bristol-Myers Squibb Company, priority 2022, published 2026).

The first experiment deals with T1, PD-1/PD-L1 interaction (PE-labeled human PD-L1-Ig binding to Jurkat cell line over-expressing human PD-1) (Homo sapiens, UniProt Q15116).
T1 construct: expressed in transfected cells; host or cells: Jurkat
T1 sequence (Q15116 25-288): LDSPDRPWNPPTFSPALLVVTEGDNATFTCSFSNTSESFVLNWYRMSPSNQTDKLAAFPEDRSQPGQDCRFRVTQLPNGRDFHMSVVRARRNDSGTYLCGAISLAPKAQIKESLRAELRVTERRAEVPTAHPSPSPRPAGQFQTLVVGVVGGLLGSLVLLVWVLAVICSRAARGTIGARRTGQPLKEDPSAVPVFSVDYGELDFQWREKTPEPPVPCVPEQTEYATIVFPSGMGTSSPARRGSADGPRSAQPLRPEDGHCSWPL
The experiment can be described thus: Jurkat-PD-1 Cell Binding High-Content Screening Assay (CBA). As to conditions: Jurkat-hPD-1 cells, PE-labeled PD-L1-Ig 20 nM final; read-out: Jurkat HPD1 PDL1 IC50. The method, boiled down:
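Binding of 20 nM (final) PE-tagged PD-L1-Ig to compound-pretreated Jurkat-hPD-1 cells was measured by high-content imaging after 1 h. Pretreatment ran 2 h at 37 °C in DMEM with 10% fetal calf serum.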
Turning to `CC(=O)NCCCC[C@@H]1NC(=O)[C@H](C(C)(C)O)NC(=O)[C@H](CC2CCCCC2)NC(=O)[C@H](CCN)NC(=O)[C@@H](CC(C)C)NC(=O)[C@H](C)N(C)C(=O)[C@H](CCC(N)=O)NC(=O)[C@H](Cc2ccc(-c3ccccc3)cc2)NC(=O)[C@H](Cc2ccc(C(=O)O)cc2)NC(=O)[C@H](Cc2cccc(C(F)(F)F)c2)NC(=O)[C@H](CC(=O)O)NC(=O)[C@H](Cc2ccc(OCC(=O)O)cc2)NC(=O)[C@H](CN2CCOCC2)NC(=O)CSC[C@@H](C(=O)N[C@@H](CCN)C(=O)NCCOCCOCC(=O)N[C@@H](CCC(=O)NCCOCCOCC(=O)NCCCCCCCCCCCCC(=O)O)C(=O)O)NC1=O` [Example 1174] ({CH2CO}-[Ala(morpholin-4-yl)]Y(Carboxymethyl)D[Phe(3-CF3)][Phe(4-COOH)][Bip]Q[NMeA][dL][Dab][Cha][Val(3-OH)]K(Ac)C[Dab][AEEA][γGlu][AEEA]-{NH(CH2)12COOH}; thioether N-14), the IC50 worked out at 23.4 nM.

For `CC(=O)NCCCC[C@@H]1NC(=O)[C@H](CC2CCCCC2)NC(=O)[C@H](CCN)NC(=O)[C@@H](CC(C)C)NC(=O)[C@H](C)N(C)C(=O)[C@H](CCCNC(N)=O)NC(=O)[C@H](Cc2ccc(-c3ccccc3)cc2)NC(=O)[C@H](Cc2ccc(O)cc2)NC(=O)[C@H](Cc2cccc(C)c2)NC(=O)[C@H](CC(=O)O)NC(=O)[C@H](Cc2ccc(OCC(=O)O)cc2)NC(=O)[C@H](Cc2ccncc2)NC(=O)CSC[C@@H](C(=O)N[C@@H](CCCN)C(=O)N[C@@H](CO)C(=O)NCCCCCCCCCCCC(=O)O)NC(=O)[C@H](C(C)O)NC1=O` (stereo partly drawn) [Example 2411] ({CH2CO}-[4Pal]Y(Carboxymethyl)D[Phe(3-Me)]Y[Bip][Cit][NMeA][dL][Dab][Cha]K(Ac)[Thr(3ξ)]C[Orn]S[12Ado]-OH; thioether N-14), the IC50 stood at 38.1 nM.

In the case of `CC(C)C[C@@H]1NC(=O)[C@H](Cc2c[nH]c3ccccc23)NC(=O)[C@H](CC(=O)O)NC(=O)[C@H](Cc2ccncc2)NC(=O)[C@H](Cc2ccc(OCC(=O)O)cc2)NC(=O)CSC[C@@H](C(=O)N2CCN(CC(=O)NCCCCCCCCCCC(=O)O)CC2)NC(=O)[C@H](CCCNC(N)=O)NC(=O)[C@H](C(C)C)NC(=O)[C@H](CC2CCCCC2)NC(=O)[C@H](CCN)NC(=O)[C@@H](CC(C)C)NC(=O)[C@H](C)N(C)C(=O)[C@H](C(C)C)NC(=O)[C@H](Cc2ccc(-c3ccccc3)cc2)NC1=O` [Example 1220] ({CH2CO}-Y(Carboxymethyl)[4Pal]DWL[Bip]V[NMeA][dL][Dab][Cha]V[Cit]C[X1][Aun]-OH; thioether N-14), the IC50 was 182 nM.

Regarding `Cc1cccc(C[C@@H]2NC(=O)[C@H](CC(=O)O)NC(=O)[C@H](Cc3ccc(C(=O)O)cc3)NC(=O)[C@H](Cc3ccc(OCC(=O)O)cc3)NC(=O)CSC[C@@H](C(=O)NCCOCCOCC(=O)NCCCCCCCCCCC(=O)O)NC(=O)[C@H](CCO)NC(=O)[C@H](C(C)C)NC(=O)[C@H](CC3CCCCC3)NC(=O)[C@H](CCN)NC(=O)[C@@H](CC(C)C)NC(=O)[C@H](C)N(C)C(=O)[C@H](CCCNC(N)=O)NC(=O)[C@H](Cc3ccc(-c4ccccc4)cc3)NC(=O)[C@H](C(C)C)NC2=O)c1` [Example 2317] ({CH2CO}-Y(Carboxymethyl)[Phe(4-COOH)]D[Phe(3-Me)]V[Bip][Cit][NMeA][dL][Dab][Cha]V[hSer]C[AEEA][Aun]-OH; thioether N-14), the IC50 was 8.9 nM.

`Cc1cccc(C[C@@H]2NC(=O)[C@H](CC(=O)O)NC(=O)[C@H](Cc3ccc(OCC(=O)O)cc3)NC(=O)[C@H](CCCNC(=N)N)NC(=O)CSC[C@@H](C(=O)NCCOCCOCC(=O)NCCCCCCCCCCC(=O)O)NC(=O)[C@H](C(C)O)NC(=O)[C@H](C(C)C)NC(=O)[C@H](CC3CCCCC3)NC(=O)[C@H](CCN)NC(=O)[C@@H](CC(C)C)NC(=O)[C@H](C)N(C)C(=O)[C@H](CCCNC(N)=O)NC(=O)[C@H](Cc3ccc(-c4ccccc4)cc3)NC(=O)[C@H](C(C)C)NC2=O)c1` (stereo partly drawn) [Example 2318] ({CH2CO}-RY(Carboxymethyl)D[Phe(3-Me)]V[Bip][Cit][NMeA][dL][Dab][Cha]V[Thr(3ξ)]C[AEEA][Aun]-OH; thioether N-14): the 50% inhibitory concentration (IC50) was 7.8 nM.

In the case of `CC(=O)NCCCC[C@@H]1NC(=O)[C@H](Cc2ccc(-c3ccccc3)cc2)NC(=O)[C@H](C(C)C)NC(=O)[C@H](Cc2c[nH]c3ccccc23)NC(=O)[C@H](CC(=O)O)NC(=O)[C@H](Cc2ccc(OCC(=O)O)cc2)NC(=O)[C@H](C(C)O)NC(=O)CSC[C@@H](C(=O)N[C@@H](CCCN)C(=O)N[C@@H](CO)C(=O)NCCCCCCCCCCCC(=O)O)NC(=O)[C@H](C(C)O)NC(=O)[C@H](C(C)C)NC(=O)[C@H](CC2CCCCC2)NC(=O)[C@H](CCN)NC(=O)[C@@H](CC(C)C)NC(=O)[C@H](C)N(C)C1=O` (stereo partly drawn) [Example 2405] ({CH2CO}-[Thr(3ξ)]Y(Carboxymethyl)DWV[Bip]K(Ac)[NMeA][dL][Dab][Cha]V[Thr(3ξ)]C[Orn]S[12Ado]-OH; thioether N-14), the IC50 came to 75.3 nM.

Turning to `CC[C@H](C)[C@@H]1NC(=O)[C@H](Cc2ccc(-c3ccccc3)cc2)NC(=O)[C@H](CC(C)C)NC(=O)[C@H](Cc2c[nH]c3ccccc23)NC(=O)[C@H](CC(=O)O)NC(=O)[C@H](Cc2ccc(C(=O)O)cc2)NC(=O)[C@H](Cc2ccc(OCC(=O)O)cc2)NC(=O)CSC[C@@H](C(=O)NCCOCCOCC(=O)NCCCCCCCCCCC(=O)O)NC(=O)[C@H](CO)NC(=O)[C@H](C(C)C)NC(=O)[C@H](CC2CCCCC2)NC(=O)[C@H](CCN)NC(=O)[C@@H](CC(C)C)NC(=O)[C@H](C)N(C)C1=O` [Example 1069] ({CH2CO}-Y(Carboxymethyl)[Phe(4-COOH)]DWL[Bip]I[NMeA][dL][Dab][Cha]VSC[AEEA][Aun]-OH; thioether N-14), the IC50 was found to be 40.7 nM.

For the compound `CC[C@@H](C)[C@@H]1NC(=O)[C@H](Cc2ccc(-c3ccccc3)cc2)NC(=O)[C@H](C(C)C)NC(=O)[C@H](Cc2c[nH]c3ccccc23)NC(=O)[C@H](CC(=O)O)NC(=O)[C@H](Cc2ccc(O)cc2)NC(=O)[C@H](Cc2ccncc2)NC(=O)CSC[C@@H](C(=O)N[C@H](CC(N)=O)C(=O)NCCOCCOCC(=O)N[C@@H](CCC(=O)NCCOCCOCC(=O)N[C@@H](CCC(=O)NCCOCCOCC(=O)N[C@@H](CCCN)C(=O)NCCCCCCCCCCC(=O)O)C(=O)O)C(=O)O)NC(=O)[C@H](CO)NC(=O)[C@H](C(C)C)NC(=O)[C@H](CC2CCCCC2)NC(=O)[C@H](CC(N)=O)NC(=O)[C@@H](CC(C)C)NC(=O)[C@H](C)N(C)C1=O` [Example 2020] ({CH2CO}-[4Pal]YDWV[Bip][aIle][NMeA][dL]N[Cha]VSC[dN][AEEA][γGlu][AEEA][γGlu][AEEA][Orn][Aun]-OH; thioether N-14), the IC50 amounted to 30.5 nM.

The experiment is the same for the next values; noted with them: PE-labeled PD-L1-Ig 20 nM final, Jurkat-hPD-1 cells; read-out: Jurkat HPD1 PDL1 IC50.
For the compound `Cc1cccc(C[C@@H]2NC(=O)[C@H](CC(=O)O)NC(=O)[C@H](Cc3ccc(O)cc3)NC(=O)[C@H]([C@@H](C)O)NC(=O)CSC[C@@H](C(=O)N[C@@H](CCN)C(=O)NCCOCCOCC(=O)NCCCCCCCCCCCC(=O)O)NC(=O)[C@H](CCC(=O)O)NC(=O)[C@H](C(C)C)NC(=O)[C@H](CC3CCCCC3)NC(=O)[C@H](CCN)NC(=O)[C@@H](CC(C)C)NC(=O)[C@H](C)N(C)C(=O)[C@H](Cc3ccc(OCC(=O)O)cc3)NC(=O)[C@H](Cc3ccc(-c4ccccc4)cc3)NC(=O)[C@H](Cc3ccc(OCC(=O)O)cc3)NC2=O)c1` [Example 2667] ({CH2CO}-TYD[Phe(3-Me)]Y(Carboxymethyl)[Bip]Y(Carboxymethyl)[NMeA][dL][Dab][Cha]VEC[Dab][AEEA][12Ado]-OH; thioether N-14), the IC50 came out at 0.3 nM.

With `CC(=O)NCCCC[C@@H]1NC(=O)[C@H](C(C)(C)O)NC(=O)[C@H](CC2CCCCC2)NC(=O)[C@H](CCN)NC(=O)[C@@H](CC(C)C)NC(=O)[C@H](C)N(C)C(=O)[C@H](CCC(N)=O)NC(=O)[C@H](Cc2ccc(-c3ccccc3)cc2)NC(=O)[C@H](Cc2ccc(C(=O)O)cc2)NC(=O)[C@H](Cc2cccc(C(F)(F)F)c2)NC(=O)[C@H](CC(=O)O)NC(=O)[C@H](Cc2ccc(OCC(=O)O)cc2)NC(=O)[C@H](Cc2ccc(OCC(=O)O)cc2)NC(=O)CSC[C@@H](C(=O)N[C@H](CCN)C(=O)NCCCCCCCCCCCCC(=O)O)NC1=O` [Example 2599] ({CH2CO}-Y(Carboxymethyl)Y(Carboxymethyl)D[Phe(3-CF3)][Phe(4-COOH)][Bip]Q[NMeA][dL][Dab][Cha][Val(3-OH)]K(Ac)C[dDab]-{NH(CH2)12COOH}; thioether N-14), the IC50 amounted to 28.2 nM.

`CCC(C)[C@@H]1NC(=O)[C@H](Cc2ccc(-c3ccccc3)cc2)NC(=O)[C@H](C(C)C)NC(=O)[C@H](Cc2c[nH]c3ccccc23)NC(=O)[C@H](CC(=O)O)NC(=O)[C@H](Cc2ccc(C(=O)O)cc2)NC(=O)[C@H](Cc2cnc[nH]2)NC(=O)CSC[C@@H](C(=O)N[C@@H](CCN)C(=O)NCCOCCOCC(=O)N[C@@H](CCC(=O)NCCOCCOCC(=O)NCCCCCCCCCCCCCCC(=O)O)C(=O)O)NC(=O)[C@H](CCC(=O)O)NC(=O)[C@H](C(C)(C)O)NC(=O)[C@H](CC2CCCCC2)NC(=O)[C@H](CCN)NC(=O)[C@@H](CC(C)C)NC(=O)[C@H](C)N(C)C1=O` (stereo partly drawn) [Example 2635] ({CH2CO}-H[Phe(4-COOH)]DWV[Bip][Ile(3ξ)][NMeA][dL][Dab][Cha][Val(3-OH)]EC[Dab][AEEA][γGlu][AEEA]-{NH(CH2)14COOH}; thioether N-14): the IC50 was 105 nM.

As to `CC(=O)NCCCC[C@@H]1NC(=O)[C@H](C(C)(C)O)NC(=O)[C@H](CC2CCCCC2)NC(=O)[C@H](CCN)NC(=O)[C@@H](CC(C)C)NC(=O)[C@H](C)N(C)C(=O)[C@H](CCC(N)=O)NC(=O)[C@H](Cc2ccc(-c3ccccc3)cc2)NC(=O)[C@H](Cc2ccc(C(=O)O)cc2)NC(=O)[C@H](Cc2cccc(C)c2)NC(=O)[C@H](CC(=O)O)NC(=O)[C@H](Cc2ccc(OCC(=O)O)cc2)NC(=O)[C@H](Cc2ccc(OCC(=O)O)cc2)NC(=O)CSC[C@@H](C(=O)N[C@@H](CCN)C(=O)NCCOCCOCC(=O)N[C@@H](CCC(=O)NCCCCCCCCCCCCCCC(=O)O)C(=O)O)NC1=O` [Example 2577] ({CH2CO}-Y(Carboxymethyl)Y(Carboxymethyl)D[Phe(3-Me)][Phe(4-COOH)][Bip]Q[NMeA][dL][Dab][Cha][Val(3-OH)]K(Ac)C[Dab][AEEA]E(NH(CH2)14COOH)-OH; thioether N-14), the IC50 worked out at 46.9 nM.
